Values of other authors, collected in patent US20080237028A1, “Nucleation in liquid, methods of use thereof and methods of generation thereof” (Hanoch KISLEV, priority 2006, published 2008).
Converted amounts (≈) assume the structure as drawn.

How the values were obtained:
[1] = test system: β-lactamase negative strain of Klebsiella pneumoniae grown as a biofilm
[2] = test system: β-lactamase negative strain of Klebsiella pneumoniae; conditions: planktonic
[3] = test system: biofilms of wild-type Pseudomonas aeruginosa; conditions: compared to equivalent bacteria lacking ability to generate biofilm
[4] = test system: biofilm forming P. aeroginosa bacteria; conditions: mature biofilm grown from bacteria treated with quorum sensing molecules; not in the untreated sample

CC1(C)S[C@@H]2[C@H](NC(=O)[C@H](N)c3ccccc3)C(=O)N2[C@H]1C(=O)O [Ampicillin]
increase in MIC ([1]; biofilm versus planktonic, 5000 μg/mL): 2500 fold
survival of biofilm under treatment ([1]; treated for 4 hours with 5000 μg/mL ampicillin): survives well
minimum inhibitory concentration (MIC) [2]: 2 µg/mL (≈ 5.72 µM)

OCl [sodium hypochlorite]
concentration increase required to kill biofilms [3]: 600 fold

NC[C@H]1O[C@H](O[C@H]2[C@H](O)[C@@H](O[C@H]3O[C@H](CO)[C@@H](O)[C@H](N)[C@H]3O)[C@H](N)C[C@@H]2N)[C@H](N)C[C@@H]1O [tobramicyn]
bacteria death within biofilm [4]: complete bacteria death
